Data taken from patent US11160885B2, “Phospholipid composition and microbubbles and emulsions formed using same” (Microvascuar Therapeutics LLC, priority 2014, dated 2021).

What was measured:
[1] = Ionization of DPPA as a function of pH; assay type: physicochemical
Text: As those skilled in the art will appreciate, DPPA comprises two acidic protons. The pKa for the second acidic proton is about 7.9. FIG. 1 graphically depicts the ionization of DPPA as a function of pH. Curve 110 recites the percent of mono-anion 6 present, and curve 120 recites the percent of di-anion 7 present. At a pH of about 4 and higher, the combined percentages of mono-anion 6 and di-anion 7 total 100.
At a pH of about 7.9, DPPA comprises about 50 percent mono-anion 7 and about 50 percent di-anion 8. At a pH of about 7.0, DPPA comprises about 85 percent mono-anion 7 and about 15 percent di-anion 8.

[2] = cited from earlier work

CCCCCCCCCCCCCCCC(=O)OC[C@H](COP(=O)(O)O)OC(=O)CCCCCCCCCCCCCCC [DPPA, dipalmitoylphosphatidic acid]
percent di-anion ([1]; pH of about 7.0): about 15%
percent mono-anion ([1]; pH of about 7.0): about 85%
percent di-anion ([1]; pH of about 7.9): about 50%
percent mono-anion ([1]; pH of about 7.9): about 50%
pKa for the second acidic proton [2]: about 7.9
